Reference: publication PMC2409895, “Antitumour efficacy of VEGFR2 tyrosine kinase inhibitor correlates with expression of VEGF and its receptor VEGFR2 in tumour models” (British Journal of Cancer, 2004)
pIC50: −log10 of the molar value.

Key:
[1] = target: T1, human VEGFR2 kinase (Homo sapiens, UniProt P35968); assay: VEGFR2 kinase assay (HTRF); format: biochemical; settings: Table 1
T1 construct: GST-fusion protein encoding the catalytic carboxyl-terminus of human VEGFR kinase 1, 2, or 3; made in house; host or cells: baculovirus expression system
T1 sequence (P35968 834-1162 limits assumed): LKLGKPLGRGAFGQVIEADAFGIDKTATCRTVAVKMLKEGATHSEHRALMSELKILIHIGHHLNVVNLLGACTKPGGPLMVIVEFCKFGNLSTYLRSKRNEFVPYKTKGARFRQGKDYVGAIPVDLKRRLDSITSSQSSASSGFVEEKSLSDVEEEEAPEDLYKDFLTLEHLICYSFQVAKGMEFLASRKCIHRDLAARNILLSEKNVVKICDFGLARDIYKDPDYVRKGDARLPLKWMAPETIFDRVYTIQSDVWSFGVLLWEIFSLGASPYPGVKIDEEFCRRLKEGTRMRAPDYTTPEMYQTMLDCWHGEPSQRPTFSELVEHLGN
Experimental: Vascular endothelial growth factor receptor kinase assays were carried out in a homogenous time-resolved fluorescence (HTRF) format in 384-well microtitre plates using a purified, baculovirus-expressed GST-fusion protein encoding the catalytic carboxyl-terminus of human VEGFR kinase 1, 2, or 3. Reactions were initiated by the addition of 10 μl of activated VEGFR kinase (1 nM, 0.1 M HEPES pH 7.5, 0.1 mg ml^−1 BSA, and 0.30 mM DTT) to 10 μl of substrate (360 nM biotin-aminohexyl-EEEEYFELVAKKKK-NH2 peptide, 75 μM ATP, 10 mM MgCl2) and 1 μl of small molecule inhibitor at various concentrations. Plates were incubated at room temperature for 60 min, and the reaction was stopped by the addition of 20 μl 100 mM EDTA. Homogenous time-resolved fluorescence reagents (20 μl 15 nM streptavidin-linked allophycocyanin, 1 nM europium-labelled anti-phosphotyrosine antibody in 0.1 M HEPES, pH 7.5, 0.1 mg ml^−1 BSA) were added and plates were incubated for a minimum of 10 min. The fluorescence at 665 nm was measured with a Victor plate reader (Wallac, Shelton, CT, USA) using a time delay of 50 μs. […] Data were fitted with a curve described by: y=((Vmax × x)/(K+x)+Y2), where Vmax is the upper asymptote, Y2 is the Y intercept, and K is the IC50.

[2] = test system: HUVEC grown in presence of VEGF; assay: VEGF-induced HUVEC proliferation (BrdU incorporation); format: cell-based; settings: Homo sapiens, VEGF 10 ng ml^−1, 72 h
Experimental: (§1) Effect of kinase inhibitors on cell proliferation was measured using BrdU incorporation method using commercially available kits (Roche Diagnostics, Indianapolis, IN, USA). Briefly, HUVEC were seeded in a medium containing 5% FBS in type 1 Collagen-coated 96-well plates and incubated overnight at 37°C, 5% CO2. The medium was aspirated from the cells, and various concentrations of kinase inhibitors in serum-free medium were added to each well. After 30 min, VEGF (10 ng ml^−1) or bFGF (0.3 ng ml^−1) was added to the wells. Cells were incubated for an additional 72 h and BrdU (10 μM) was added during the last 18–24 h of incubation. Data were fitted with a curve described by the equation, y=Vmax × (1−(x/(K+x))), where K is equal to the IC50.

[3] = test system: HUVEC grown in presence of bFGF; assay: bFGF-induced HUVEC proliferation (BrdU incorporation); format: cell-based; settings: Homo sapiens, bFGF 0.3 ng ml^−1, 72 h
Experimental: as §1

`COc1cc(Nc2nccc(Nc3ccc4c(C)n[nH]c4c3)n2)cc(OC)c1OC` [GW612286, N^4-(3-methyl-1H-indazol-6-yl)-N^2-(3,4,5-trimethoxyphenyl)pyrimidine-2,4-diamine] showed a pIC50 [1] of 8.10, a pIC50 [2] of 6.74 and a pIC50 [3] of 5.44.
